Where only a bound is given, the exact number is not on record here.

For data set [1], the target named is T1, GHSR1a (Homo sapiens, UniProt Q92847).
T1 construct: expressed in transfected cells; host or cells: HEK293
In words: Calcium FLIPR assay, GHSR-1a agonism. To be noted: HEK293/GHSR1a cells. Further details: Emax: unit not given here. In kind it is cell-based. The essentials:
(§1)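 Calcium flux measured by FLIPR in GHSR1a-expressing HEK293 cells after 30-60 min dye preloading. Compound was added at t=20 sec, alone for agonism or with ghrelin (10 nM) for antagonism, and fluorescence recorded for 2 minutes. EC50 and IC50 were estimated from dose-response data.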

In data set [2] the target is T1, GHSR1a. Nature of the data set: Calcium FLIPR assay, GHSR-1a antagonism (reduction of ghrelin response). To be noted: HEK293/GHSR1a cells, ghrelin 10 nM. In kind it is cell-based. The essentials: as §1
In the next data set the test system is C57BL/6J mice. Nature of the data set: Food intake test in mouse (GHSR1a antagonists). In kind it is in vivo. Particulars: for inhibition in vivo at 10 mg/kg / inhibition in vivo at 30 mg/kg: Mus musculus. On the procedure: Male C57BL/6J mice, 18-22 g body weight, were fasted overnight (16 h before compound administration) and placed in a regular light dark cycle (6:00-18:00 light/18:00-6:00 dark). After 1 wk acclimation, animals were sorted into two groups (n=6 each, 2 per cage) based on body weight. Animals in group one were be treated with vehicle and animals in group 2 were treated with the test agent (n=6 for each group). The cumulative food intake was evaluated at 1, 2, 4, 8 and 24 hrs after drug or vehicle treatment. Food intake was measured by subtracting uneaten food from the initial premeasured food.

Data set [3] in a line: Metabolic Stability (H = Human). The format is in vitro ADME.
Data set [4] is described as follows: Metabolic Stability (M = Mouse). In kind it is in vitro ADME.

T1 sequence (Q92847 whole entry): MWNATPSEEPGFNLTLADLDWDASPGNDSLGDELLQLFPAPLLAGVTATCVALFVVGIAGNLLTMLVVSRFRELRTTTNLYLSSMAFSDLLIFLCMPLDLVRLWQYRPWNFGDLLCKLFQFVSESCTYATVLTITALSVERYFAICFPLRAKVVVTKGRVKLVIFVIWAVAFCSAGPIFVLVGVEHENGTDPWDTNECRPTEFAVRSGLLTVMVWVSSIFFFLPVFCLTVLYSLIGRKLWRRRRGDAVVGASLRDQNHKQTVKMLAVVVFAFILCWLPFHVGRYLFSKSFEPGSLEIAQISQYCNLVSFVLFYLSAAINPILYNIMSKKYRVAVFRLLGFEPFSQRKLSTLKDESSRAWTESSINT

In the case of `CN1CCC(N(C)C(=O)NC(c2ccc(-c3cncnc3)c(Cl)c2Cl)C(F)(F)F)CC1` (centres unmarked) [Compound H0686, 3-(1-(2,3-dichloro-4-(pyrimidin-5-yl)phenyl)-2,2,2-trifluoroethyl)-1-methyl-1-(1-methylpiperidin-4-yl)urea], on GHSR1a [1], the EC50 was greater than 30000 nM. Also, on GHSR1a [2], the IC50 worked out at 14 nM. Further, the inhibition in vivo at 10 mg/kg in the data set with C57BL/6J mice (ip, 2 h, i.p. 10 mg/kg) was found to be 61%; in the data set with C57BL/6J mice (ip, 4 h, i.p. 10 mg/kg), 61%. For the same compound, the “Mouse Food Intake, result in words” value with C57BL/6J mice (PO, dose not given) is reported as “NSE”. Further, the “Metabolic Stability H” value in data set [3] is “Medium”. In addition, the “Metabolic Stability M” value in data set [4] is “High”.
`CC(NC(=O)N(C)C1CCN(C)CC1)c1ccc(-c2ccc(C(N)=O)s2)c(Cl)c1Cl` (centres unmarked) [Compound H0691, 5-(2,3-dichloro-4-(1-(3-methyl-3-(1-methylpiperidin-4-yl)ureido)ethyl)phenyl)thiophene-2-carboxamide]: the EC50 on GHSR1a [1] was greater than 30000 nM. Besides, on GHSR1a [2], the IC50 amounted to 5 nM. This compound also yielded an inhibition in vivo at 10 mg/kg in the data set on C57BL/6J mice (ip, 2 h, i.p. 10 mg/kg) of 62%. Further, the “Mouse Food Intake, result in words” value in the data set on C57BL/6J mice (PO, dose not given) is on record as “not active”. Besides, the “Metabolic Stability H” value in data set [3] was “High H High M”. The “Metabolic Stability M” value in data set [4] is “High H High M”.
For `CC(NC(=O)N(C)C1CCN(C)CC1)c1ccc(-c2cnccn2)c(Cl)c1Cl` (centres unmarked) [Compound H0700, 3-(1-(2,3-dichloro-4-(pyrazin-2-yl)phenyl)ethyl)-1-methyl-1-(1-methylpiperidin-4-yl)urea], at GHSR1a [1], the EC50 was greater than 30000 nM. Besides, the IC50 on GHSR1a [2] worked out at 7 nM. Also, the inhibition in vivo at 10 mg/kg in the data set with C57BL/6J mice (1 h, Fed mice, 10 mg/kg) worked out at 71%; in the data set with C57BL/6J mice (ip, 2 h, i.p. 10 mg/kg), 41%. Also, the “Metabolic Stability H” value in data set [3] is listed as “High H High M”. For the same compound, the “Metabolic Stability M” value in data set [4] is “High H High M”.
`CC(NC(=O)N(C)C1CCN(C)CC1)c1ccc(-c2cncc(N)c2)c(Cl)c1Cl` (centres unmarked) [Compound H0704, 3-(1-(4-(5-aminopyridin-3-yl)-2,3-dichlorophenyl)ethyl)-1-methyl-1-(1-methylpiperidin-4-yl)urea]: the EC50 at GHSR1a [1] was greater than 30000 nM. Besides, the IC50 on GHSR1a [2] stood at 19 nM. This compound also showed an inhibition in vivo at 10 mg/kg with C57BL/6J mice (ip, 2 h, i.p. 10 mg/kg) of 32%. For the same compound, in data set [3], the “Metabolic Stability H” value is “High”. For the same compound, in data set [4], the “Metabolic Stability M” value is reported as “Medium”.
For `CN1CCC(N(C)C(=O)NC(CC2CC2)c2ccc(-c3cnccn3)c(Cl)c2Cl)CC1` (centres unmarked) [Compound H0722, 3-(2-cyclopropyl-1-(2,3-dichloro-4-(pyrazin-2-yl)phenyl)ethyl)-1-methyl-1-(1-methylpiperidin-4-yl)urea], the EC50 on GHSR1a [1] was greater than 30000 nM. Moreover, the IC50 at GHSR1a [2] worked out at 13 nM. The same compound yielded an inhibition in vivo at 10 mg/kg with C57BL/6J mice (ip, 1 h, i.p. 10 mg/kg) of 90%. For the same compound, the “Mouse Food Intake, result in words” value in the data set on C57BL/6J mice (PO 30 mg/kg) is on record as “NSE”. In data set [3], the “Metabolic Stability H” value is given as “High H High M”. Moreover, the “Metabolic Stability M” value in data set [4] was “High H High M”.
As for `CC(NC(=O)N(C)C1CCN(C)CC1)c1ccc(C#Cc2cccs2)c(Cl)c1Cl` (centres unmarked) [Compound H0737, 3-(1-(2,3-dichloro-4-(thiophen-2-ylethynyl)phenyl)ethyl)-1-methyl-1-(1-methylpiperidin-4-yl)urea], the EC50 at GHSR1a [1] is greater than 30000 nM. The IC50 on GHSR1a [2] was determined as 13 nM. The same compound showed an inhibition in vivo at 10 mg/kg with C57BL/6J mice (ip, 1 h, i.p. 10 mg/kg) of 75%. Also, the “Mouse Food Intake, result in words” value with C57BL/6J mice (PO, dose not given) was “NSE”. In data set [3], the “Metabolic Stability H” value is “High H High M”. In addition, the “Metabolic Stability M” value in data set [4] is “High H High M”.
Take `CC(NC(=O)N(C)C1CCN(C)CC1)c1ccc(C#Cc2nccs2)c(Cl)c1Cl` (centres unmarked) [Compound H0754, 3-(1-(2,3-dichloro-4-(thiazol-2-ylethynyl)phenyl)ethyl)-1-methyl-1-(1-methylpiperidin-4-yl)urea]: the EC50 on GHSR1a [1] was greater than 30000 nM. For the same compound, on GHSR1a [2], the IC50 came out at 11 nM. The inhibition in vivo at 10 mg/kg with C57BL/6J mice (ip, 1 h, i.p. 10 mg/kg) is 74%. For the same compound, the “Mouse Food Intake, result in words” value in the data set with C57BL/6J mice (PO + ANA (ANAM), mice, dose not given) is “no effect”; with C57BL/6J mice (PO, dose not given), “no effect”. Further, in data set [3], the “Metabolic Stability H” value is listed as “High H High M”. Further, the “Metabolic Stability M” value in data set [4] is reported as “High H High M”.
Consider `CC(NC(=O)N(C)C1CCN(C)CC1)c1ccc(C#Cc2ccsc2)c(Cl)c1Cl` (centres unmarked) [Compound H0759, 3-(1-(2,3-dichloro-4-(thiophen-3-ylethynyl)phenyl)ethyl)-1-methyl-1-(1-methylpiperidin-4-yl)urea], for which the EC50 at GHSR1a [1] is greater than 30000 nM. The IC50 at GHSR1a [2] worked out at 7 nM. The same compound registered an inhibition in vivo at 10 mg/kg in the data set with C57BL/6J mice (ip, 1 h, i.p. 10 mg/kg) of 85%. Further, in the data set with C57BL/6J mice (PO, dose not given), the “Mouse Food Intake, result in words” value is listed as “no effect”. In addition, in data set [3], the “Metabolic Stability H” value is reported as “High H High M”. Besides, the “Metabolic Stability M” value in data set [4] is recorded as “High H High M”.
Turning to `CN1CCC(N(O)C(=O)NC(CC2CC2)c2ccc(-c3cnccn3)c(Cl)c2Cl)CC1` (centres unmarked) [Compound H0761, 3-(2-cyclopropyl-1-(2,3-dichloro-4-(pyrazin-2-yl)phenyl)ethyl)-1-hydroxy-1-(1-methylpiperidin-4-yl)urea], the EC50 on GHSR1a [1] was determined as 3 nM. In addition, the Emax at GHSR1a [1] came to 2907. Further, the IC50 on GHSR1a [2] came to 0.2 nM. Also, in the data set on C57BL/6J mice (ip, 1 h, i.p. 10 mg/kg), the inhibition in vivo at 10 mg/kg came to 63%. The “Mouse Food Intake, result in words” value is “NSE” with C57BL/6J mice (PO, dose not given); “No activity” with C57BL/6J mice (PO, fasted mice, dose not given); “No activity” in the data set with C57BL/6J mice (fed mice, route not clear). This compound registered an FI increase in the data set on C57BL/6J mice (PO, fed mice) of 215%. Besides, the “Metabolic Stability H” value in data set [3] was “High H High M”. Further, the “Metabolic Stability M” value in data set [4] was “High H High M”.
On to `CC(NC(=O)N(C)C1CCN(C)CC1)c1ccc(C#CC2CC2)c(Cl)c1Cl` (centres unmarked) [Compound H0764, 3-(1-(2,3-dichloro-4-(cyclopropylethynyl)phenyl)ethyl)-1-methyl-1-(1-methylpiperidin-4-yl)urea], for which, on GHSR1a [1], the EC50 turned out to be 14 nM. Moreover, the Emax on GHSR1a [1] is given as 1352. Moreover, the IC50 at GHSR1a [2] amounted to 10 nM. The same compound had an inhibition in vivo at 10 mg/kg in the data set on C57BL/6J mice (ip, 1 h, i.p. 10 mg/kg) of 91%. The inhibition in vivo at 30 mg/kg in the data set on C57BL/6J mice (po, 2 h, PO 30 mg/kg) is 70%; with C57BL/6J mice (sc, 1 h, SC 30 mg/kg), 53%. Besides, the “Metabolic Stability H” value in data set [3] is recorded as “High H High M”. The “Metabolic Stability M” value in data set [4] is given as “High H High M”.
`CC(NC(=O)N(C)C1CCN(C)CC1)c1ccc(/C=C/c2cccs2)c(Cl)c1Cl` (centres unmarked) [Compound H0767, (E)-3-(1-(2,3-dichloro-4-(2-(thiophen-2-yl)vinyl)phenyl)ethyl)-1-methyl-1-(1-methylpiperidin-4-yl)urea]: the concentration for a half-maximal effect (EC50) at GHSR1a [1] was greater than 30000 nM. The IC50 on GHSR1a [2] came to 37 nM. Moreover, the inhibition in vivo at 10 mg/kg in the data set on C57BL/6J mice (ip, 1 h, i.p. 10 mg/kg) came to 88%. The “Mouse Food Intake, result in words” value in the data set with C57BL/6J mice (PO, dose not given) is “NSE”. Further, the “Metabolic Stability H” value in data set [3] is “High H High M”. Also, the “Metabolic Stability M” value in data set [4] was “High H High M”.
For `CC(NC(=O)N(C)[C@@H]1CCN(C)CC1(C)C)c1ccc(-c2cnccn2)c(Cl)c1Cl` (stereo partly drawn) [Compound H0824, 2-(1-(2,3-dichloro-4-(pyrazin-2-yl)phenyl)ethyl)-1-methyl-1-((R)-1,3,3-trimethylpiperidin-4-yl)urea], on GHSR1a [1], the EC50 is greater than 30000 nM. The IC50 on GHSR1a [2] worked out at 3 nM. Moreover, the “Mouse Food Intake, result in words” value in the data set on C57BL/6J mice (PO 30 mg/kg + ANA mice) was “PO 30 mg/kg + ANA mice: NSE”. Moreover, the “Metabolic Stability H” value in data set [3] is on record as “High”. The “Metabolic Stability M” value in data set [4] is “Medium”.
As for `CCC(NC(=O)N(C)C1CCN(C)CC1)c1ccc(-c2cnccn2)c(Cl)c1Cl` (centres unmarked) [Compound H0829, 3-(1-(2,3-dichloro-4-(pyrazin-2-yl)phenyl)propyl)-1-methyl-1-(1-methylpiperidin-4-yl)urea], the EC50 on GHSR1a [1] is greater than 30000 nM. Further, at GHSR1a [2], the IC50 was found to be 3 nM. For the same compound, the “Mouse Food Intake, result in words” value in the data set with C57BL/6J mice (PO 10 mg/kg + ANA (ANAM) 30 mg/kg mice) is reported as “PO 10 mg/kg + ANA 30 mg/kg mice: NSE”. Further, in data set [3], the “Metabolic Stability H” value is given as “High H High M”. Besides, in data set [4], the “Metabolic Stability M” value is on record as “High H High M”.

(Values after patent US9546157B2, “Asymmetric piperidinyl-substituted ureas as medicines” (Helsinn Healthcare SA, priority 2014, dated 2017).)
